Mortality data for 13 molecules are collected here from patent US9491944B2, “Pesticidal compositions and related methods” (DOW AGROSCIENCES LLC, priority 2013, dated 2016).

Experiment [1] concerns Green Peach Aphid (Myzus persicae) (GPA) (MYZUPE). The experiment can be described thus: Bioassay for Green Peach Aphid (GPA) foliar spray on cabbage seedlings. The class given is in vivo. Particulars: 72 h, 200 ppm foliar spray on cabbage seedlings, graded after three days, Abbott corrected % control, read-out: GPA % Control (or Mortality) rating. The method, then:
Bioassay for Green Peach Aphid (Myzus persicae) (GPA) (MYZUPE)
Cabbage seedlings grown in 3-inch pots, with 2-3 small (3-5 cm) true leaves, were used as test substrate. The seedlings were infested with 20-50 GPA (wingless adult and nymph stages) one day prior to chemical application. Four pots with individual seedlings were used for each treatment. Test compounds (2 mg) were dissolved in 2 mL of acetone/methanol (1:1) solvent, forming stock solutions of 1000 ppm test compound. The stock solutions were diluted 5× with 0.025% Tween 20 in H2O to obtain the solution at 200 ppm test compound. A hand-held aspirator-type sprayer was used for spraying a solution to both sides of cabbage leaves until runoff Reference plants (solvent check) were sprayed with the diluent only containing 20% by volume of acetone/methanol (1:1) solvent. Treated plants were held in a holding room for three days at approximately 25° C. and ambient relative humidity (RH) prior to grading. Evaluation was conducted by counting the number of live aphids per plant under a microscope. Percent control was measured by using Abbott's correction formula (W. S. Abbott, “A Method of Computing the Effectiveness of an Insecticide,” J. Econ. Entomol. 18 (1925), pp. 265-267) as follows Corrected % Control=100*(X−Y)/X
X=No. of live aphids on solvent check plants and
Y=No. of live aphids on treated plants.
Biological Data for Green Peach Aphid (GPA) (MYZUPE) and Sweetpotato Whitefly-crawler (WF) (BEMITA)” (see Table section).
(§1) The mortality efficiency of the pesticidal compounds against GPA and WF insects was determined after treatment.

Experiment [2] concerns Sweetpotato Whitefly-Crawler (WF) (Bemisia tabaci) (BEMITA). The experiment can be described thus: Insecticidal test for Sweetpotato Whitefly-crawler (WF) in foliar spray assay on cotton plants. The conditions noted are these: 216 h, 200 ppm foliar spray on cotton plants, graded after 9 days, Abbott corrected % control, read-out: WF % Control (or Mortality) rating. The class given is in vivo. The method, then:
Insecticidal Test for Sweetpotato Whitefly-Crawler (WF) (Bemisia tabaci) (BEMITA) in Foliar Spray Assay
Cotton plants (Gossypium hirsutum) grown in 3-inch pots, with 1 small (4-5 cm) true leaves, were used as test substrate. The plants were infested with 200-400 whitefly eggs 4-5 days prior to chemical application. Four pots with individual plants were used for each treatment. Test compounds (2 mg) were dissolved in 1 mL of acetone solvent, forming stock solutions of 2000 ppm test compound. The stock solutions were diluted 10× with 0.025% Tween 20 in H2O (diluents) to obtain the solution at 200 ppm test compound. A hand-held aspirator-type sprayer was used for spraying a solution to both sides of cotton leaves until runoff. Reference plants (solvent check) were sprayed with the diluent only containing 10% by volume of acetone solvent. Treated plants were held in a holding room for 9 days at approximately 25° C. and ambient relative humidity (RH) prior to grading. Evaluation was conducted by counting the number of live 3-4 nymph stage per plant under a microscope. Percent control was measured by using Abbott's correction formula (W. S. Abbott, “A Method of Computing the Effectiveness of an Insecticide,” J. Econ. Entomol. 18 (1925), pp. 265-267) as follows. Corrected % Control=100*(X−Y)/X
X=No. of live nymphs on solvent check plants and
Y=No. of live nymphs on treated plants.
Biological Data for Green Peach Aphid (MYZUPE) and Sweetpotato Whitefly-crawler (WF) (BEMITA)” (see Table section).
as §1

SMILES strings stand for the structures.

As for `Clc1ccccc1-c1cn(-c2cccnc2)nn1` [Compound F1], the mortality at 200 ppm in experiment [1] and in experiment [2] was 0 to 80% throughout.

`FC(F)(F)c1ccc(-c2cn(-c3cccnc3)nn2)cn1` [Compound F2, 5-[1-(Pyridin-3-yl)-1H-1,2,3-triazol-4-yl]-2-(trifluoromethyl)pyridine]: the mortality at 200 ppm is 80 to 100% in experiment [1] and 0 to 80% in experiment [2].

For `CSc1cccc(-c2cn(-c3cccnc3)nn2)c1` [Compound F3], the mortality at 200 ppm in experiment [1] is 80 to 100%; in experiment [2], below 0%.

Consider `Cc1ccc(-c2cn(-c3cccnc3)nn2)nc1` [Compound F4, 5-Methyl-2-[1-(pyridin-3-yl)-1H-1,2,3-triazol-4-yl]pyridine], for which the mortality at 200 ppm in experiment [1] and in experiment [2] was 80 to 100% each time.

Regarding `COc1cccc(-c2cn(-c3cccnc3)nn2)n1` [Compound F5, 2-Methoxy-6-[1-(pyridin-3-yl)-1H-1,2,3-triazol-4-yl]pyridine], the mortality at 200 ppm is 80 to 100% in experiment [1] and 0 to 80% in experiment [2].

`FC(F)(F)Oc1cccc(-c2cn(-c3cccnc3)nn2)c1` [Compound F6, 3-(4-(3-(trifluoromethoxy)phenyl)-1H-1,2,3-triazol-1-yl)pyridine]: the mortality at 200 ppm in experiment [1] lay within 80 to 100%; in experiment [2] it was 0 to 80%.

For the molecule `FC(F)(F)c1cccc(-c2cn(-c3cccnc3)nn2)n1` [Compound F7, 2-[1-(pyridin-3-yl)-1H-1,2,3-triazol-4-yl]-6-(trifluoromethyl) pyridine], the mortality at 200 ppm in experiment [1] and in experiment [2] was 80 to 100% each time.

As for `FC(F)(F)c1ccc(-c2cn(-c3cccnc3)nn2)nc1` [Compound F8, 2-[1-(Pyridin-3-yl)-1H-1,2,3-triazol-4-yl]-5-(trifluoromethyl)pyridine], the mortality at 200 ppm in experiment [1] and in experiment [2] was 80 to 100% throughout.

On to `Brc1cccc(-c2cn(-c3cccnc3)nn2)n1` [Compound F9, 2-Bromo-6-[1-(pyridin-3-yl)-1H-1,2,3-triazol-4-yl]pyridine], for which the results for the mortality at 200 ppm in experiment [1] and in experiment [2] were 80 to 100% and 0 to 80%, respectively.

Regarding `Clc1cccc(-c2cn(-c3cccnc3)nn2)n1` [Compound F10, 2-Chloro-6-[1-(pyridin-3-yl)-1H-1,2,3-triazol-4-yl]pyridine], the mortality at 200 ppm in experiment [1] fell in the range of 80 to 100%; in experiment [2], 0 to 80%.

Regarding `Clc1cccc(-c2cn(-c3cccnc3)nn2)c1` [Compound F11], the mortality at 200 ppm in experiment [1] was 0 to 80%; in experiment [2] it was below 0%.

For the molecule `Cc1cccc(-c2cn(-c3cccnc3)nn2)n1` [Compound F12, 2-methyl-6-(1-(pyridin-3-yl)-1H-1,2,3-triazol-4-yl)pyridine], the mortality at 200 ppm in experiment [1] and in experiment [2] was 80 to 100% each time.

Consider `FC(F)(F)c1cccc(-c2cn(-c3cccnc3)nn2)c1` [Compound F13], for which the mortality at 200 ppm in experiment [1] is 80 to 100%; in experiment [2], below 0%.
